Read-outs that look alike come from different tables or passages of the source.
Tests used:
Assay type in all cases: in vivo
[1] = test system: cotton melon aphid (Aphis gossypii (Glover)); experiment: Test E: control of cotton melon aphid, spray on okra plant; settings: 144 h; for mortality at 2 ppm: sprayed at 2 ppm; for mortality at 10 ppm: sprayed at 10 ppm
Experimental: (§1) Test compounds were formulated using a solution containing 10% acetone, 90% water and 300 ppm Activator 90® non-ionic surfactant (Loveland Products, Loveland, Colorado, USA). The formulated compounds were applied in 1 mL of liquid through an atomized nozzle positioned 1.27 cm (0.5 inches) above the top of each test unit. Test compounds were sprayed at the rates indicated, and each test was replicated three times.
For evaluating control of cotton melon aphid (Aphis gossypii (Glover)) through contact and/or systemic means, the test unit consisted of a small open container with a 5-day-old okra plant inside. This was pre-infested with 30-40 insects on a piece of leaf according to the cut-leaf method, and the soil of the test unit was covered with a layer of sand.
Test compounds were formulated and sprayed at 250, 50, 10, and 2 ppm with three replications as described above. After spraying, the test units were maintained in a growth chamber for 6 days at 19° C. and 70% relative humidity. Each test unit was then visually assessed for insect mortality.

[2] = test system: Corn Planthopper (Peregrinus maidis (Ashmead)); experiment: Test C: control of Corn Planthopper, spray on corn plant; settings: 144 h, nymphs, assessed after 6 days; for mortality at 250 ppm: sprayed at 250 ppm; for mortality at 50 ppm: sprayed at 50 ppm
Experimental: as §1
For evaluating control of Corn Planthopper (Peregrinus maidis (Ashmead)) through contact and/or systemic means, the test unit consisted of a small open container with a 3- to 4-day-old corn (maize) plant inside. White sand was added to the top of the soil prior to application of the test compound.
Test compounds were formulated and sprayed at 250 and 50 ppm with three replications as described above. After spraying of the formulated test compound, the test units were allowed to dry for 1 h before they were post-infested with ˜15-20 nymphs (18-to-21-day-old). A black, screened cap was placed on the top of each test unit, and the test units were held for 6 days in a growth chamber at 22 to 24° C. and 50-70% relative humidity. Each test unit was then visually assessed for insect mortality.

[3] = test system: Green Peach Aphid (Myzus persicae (Sulzer)); experiment: Test D: control of Green Peach Aphid, spray on radish plant; settings: 144 h, assessed after 6 days; for mortality at 250 ppm: sprayed at 250 ppm
Experimental: as §1
For evaluating control of Green Peach Aphid (Myzus persicae (Sulzer)) through contact and/or systemic means, the test unit consisted of a small open container with a 12- to 15-day-old radish plant inside. Prior to compound application, each test unit was pre-infested by placing on a leaf of the test plant 30-40 aphids on a piece of leaf excised from a culture plant (cut-leaf method). The aphids moved onto the test plant as the leaf piece desiccated. After pre-infestation, the soil of the test unit was covered with a layer of sand.
Test compounds were formulated and sprayed at 250 and 50 ppm with three replications as described above. After spraying of the formulated test compound, each test unit was allowed to dry for 1 hour and then a black, screened cap was placed on top. The test units were held for 6 days in a growth chamber at 19-21° C. and 50-70% relative humidity. Each test unit was then visually assessed for insect mortality.

[4] = sprayed at 50 ppm, assessed after 6 days, read-out: mortality
[5] = sprayed at 250 ppm, assessed after 6 days, read-out: mortality

CC(NC(=O)c1cc(OS(=O)(=O)C(F)(F)F)cc(C(F)(F)F)c1)c1ncnn1-c1ncccn1 (centres unmarked) [Compound 2, 3-[[[1-[1-(2-Pyrimidinyl)-1H-1,2,4-triazol-5-yl]ethyl]amino]carbonyl]-5-(trifluoromethyl)phenyl 1,1,1-trifluoromethanesulfonate]
≥ 80%: mortality at 2 ppm ([1]; assessed after 6 days) | mortality at 10 ppm ([1]; assessed after 6 days) | mortality at 50 ppm [1, 4] | mortality at 250 ppm [1, 5]

CC(NC(=O)c1cccc(OS(=O)(=O)C(F)(F)F)c1)c1ncnn1-c1ncccn1 (centres unmarked) [Compound 3, 3-[[[1-[1-(2-Pyrimidinyl)-1H-1,2,4-triazol-5-yl]ethyl]amino]carbonyl]phenyl 1,1,1-trifluoromethanesulfonate]
≥ 80%: mortality at 250 ppm [2] | mortality at 50 ppm [1, 4] | mortality at 250 ppm [1, 5]

CC(NC(=O)c1cc(Cl)cc(OS(=O)(=O)C(F)(F)F)c1)c1ncnn1-c1ncccn1 (centres unmarked) [Compound 4, 3-Chloro-5-[[[1-[1-(2-pyrimidinyl)-1H-1,2,4-triazol-5-yl]ethyl]amino]carbonyl]phenyl 1,1,1-trifluoromethanesulfonate]
≥ 80%: mortality at 250 ppm [2] | mortality at 50 ppm ([3]; sprayed at 50 ppm) | mortality at 250 ppm [3] | mortality at 2 ppm ([1]; assessed after 6 days) | mortality at 10 ppm ([1]; assessed after 6 days) | mortality at 50 ppm [1, 4] | mortality at 250 ppm [1, 5]

CC(NC(=O)c1cccc(OS(=O)(=O)c2ccccc2)c1)c1ncnn1-c1ncccn1 (centres unmarked) [Compound 6, 3-[(Phenylsulfonyl)oxy]-N-[1-[1-(2-pyrimidinyl)-1H-1,2,4-triazol-5-yl]ethyl]benzamide]
≥ 80%: mortality at 250 ppm [1, 5]

CC(NC(=O)c1cccc(OS(=O)(=O)C(F)F)c1)c1ncnn1-c1ncccn1 (centres unmarked) [Compound 7, 3-[[[1-[1-(2-Pyrimidinyl)-1H-1,2,4-triazol-5-yl]ethyl]amino]carbonyl]phenyl 1,1-difluoromethanesulfonate]
≥ 80%: mortality at 50 ppm [1, 4] | mortality at 250 ppm [1, 5]

C[C@@H](NC(=O)c1cc(Cl)cc(OS(=O)(=O)C(F)(F)F)c1)c1ncnn1-c1ncccn1 [Compound 9, 3-Chloro-5-[[[1-[1-(2-pyrimidinyl)-1H-1,2,4-triazol-5-yl]ethyl]amino]carbonyl]phenyl 1,1,1-trifluoromethanesulfonate; (+) enantiomer]
≥ 80%: mortality at 50 ppm [2] | mortality at 250 ppm [2] | mortality at 250 ppm [3] | mortality at 50 ppm [1, 4] | mortality at 250 ppm [1, 5]

CC(c1ncnn1-c1ncccn1)N(CC1CC1)C(=O)c1cc(Cl)cc(OS(=O)(=O)C(F)(F)F)c1 (centres unmarked) [Compound 10, 3-Chloro-5-[[(cyclopropylmethyl)[1-[1-(2-pyrimidinyl)-1H-1,2,4-triazol-5-yl]ethyl]amino]carbonyl]phenyl 1,1,1-trifluoromethanesulfonate]
≥ 80%: mortality at 50 ppm [2] | mortality at 250 ppm [2] | mortality at 2 ppm ([1]; assessed after 6 days) | mortality at 10 ppm ([1]; assessed after 6 days) | mortality at 50 ppm [1, 4] | mortality at 250 ppm [1, 5]

CC(c1ncnn1-c1ncccn1)N(CC1CC1)C(=O)c1cc(OS(=O)(=O)C(F)(F)F)cc(C(F)(F)F)c1 (centres unmarked) [Compound 11, 3-[[(Cyclopropylmethyl)[1-[1-(2-pyrimidinyl)-1H-1,2,4-triazol-5-yl]ethyl]amino]carbonyl]-5-(trifluoromethyl)phenyl 1,1,1-trifluoromethanesulfonate]
≥ 80%: mortality at 50 ppm [2] | mortality at 250 ppm [2] | mortality at 250 ppm [3] | mortality at 2 ppm ([1]; assessed after 6 days) | mortality at 10 ppm ([1]; assessed after 6 days) | mortality at 50 ppm [1, 4] | mortality at 250 ppm [1, 5]

C[C@H](NC(=O)c1cc(OS(=O)(=O)C(F)(F)F)cc(C(F)(F)F)c1)c1ncnn1-c1ncccn1 [Compound 12, 3-[[[(1S)-[1-(2-Pyrimidinyl)-1H-1,2,4-triazol-5-yl]ethyl]amino]carbonyl]-5-(trifluoromethyl)phenyl 1,1,1-trifluoromethanesulfonate; (−) enantiomer]
≥ 80%: mortality at 250 ppm [1, 5]

C[C@@H](NC(=O)c1cc(OS(=O)(=O)C(F)(F)F)cc(C(F)(F)F)c1)c1ncnn1-c1ncccn1 [Compound 13, (R)3-[[[1-[1-(2-Pyrimidinyl)-1H-1,2,4-triazol-5-yl]ethyl]amino]carbonyl]-5-(trifluoromethyl)phenyl 1,1,1-trifluoromethanesulfonate; (+) enantiomer]
≥ 80%: mortality at 50 ppm [2] | mortality at 250 ppm [2] | mortality at 250 ppm [3] | mortality at 2 ppm ([1]; assessed after 6 days) | mortality at 10 ppm ([1]; assessed after 6 days) | mortality at 50 ppm [1, 4] | mortality at 250 ppm [1, 5]

CC(NC(=O)c1cc(F)cc(OS(=O)(=O)C(F)(F)F)c1)c1ncnn1-c1ncccn1 (centres unmarked) [Compound 14, 3-Fluoro-5-[[[1-[1-(2-pyrimidinyl)-1H-1,2,4-triazol-5-yl]ethyl]amino]carbonyl]phenyl 1,1,1-trifluoromethanesulfonate]
≥ 80%: mortality at 50 ppm [1, 4] | mortality at 250 ppm [1, 5]

CC(NC(=O)c1cc(Br)cc(OS(=O)(=O)C(F)(F)F)c1)c1ncnn1-c1ncccn1 (centres unmarked) [Compound 15, 3-Bromo-5-[[[1-[1-(2-pyrimidinyl)-1H-1,2,4-triazol-5-yl]ethyl]amino]carbonyl]phenyl 1,1,1-trifluoromethanesulfonate]
≥ 80%: mortality at 50 ppm [1, 4] | mortality at 250 ppm [1, 5]

COC(=O)N(C(=O)c1cc(Cl)cc(OS(=O)(=O)C(F)(F)F)c1)C(C)c1ncnn1-c1ncccn1 (centres unmarked) [Compound 20]
≥ 80%: mortality at 50 ppm [1] | mortality at 250 ppm [1]

CCN(C(=O)c1cc(OS(=O)(=O)C(F)(F)F)cc(C(F)(F)F)c1)C(C)c1ncnn1-c1ncccn1 (centres unmarked) [Compound 27, 3-[[ethyl[1-[1-(2-pyrimidinyl)-1H-1,2,4-triazol-5-yl]ethyl]amino]carbonyl]-5-(trifluoromethyl)phenyl 1,1,1-trifluoromethanesulfonate]
≥ 80%: mortality at 250 ppm [2] | mortality at 50 ppm [1, 4] | mortality at 250 ppm [1, 5]

CC(NC(=O)c1cc(OS(=O)(=O)CC(F)(F)F)cc(C(F)(F)F)c1)c1ncnn1-c1ncccn1 (centres unmarked) [Compound 28]
≥ 80%: mortality at 250 ppm [1, 5]

CC(NC(=O)c1cc(OS(=O)(=O)C(F)F)cc(C(F)(F)F)c1)c1ncnn1-c1ncccn1 (centres unmarked) [Compound 38]
≥ 80%: mortality at 250 ppm [1, 5]

CC(NC(=O)c1cc(Cl)cc(OS(=O)(=O)C(F)F)c1)c1ncnn1-c1ncccn1 (centres unmarked) [Compound 39]
≥ 80%: mortality at 250 ppm [1, 5]

CC(NC(=O)c1cc(OS(=O)(=O)C(F)(F)F)cc([N+](=O)[O-])c1)c1ncnn1-c1ncccn1 (centres unmarked) [Compound 46]
≥ 80%: mortality at 50 ppm [1, 4] | mortality at 250 ppm [1, 5]

COC(=O)N(C(=O)c1cc(OS(=O)(=O)C(F)(F)F)cc(C(F)(F)F)c1)C(C)c1ncnn1-c1ncccn1 (centres unmarked) [Compound 48]
≥ 80%: mortality at 50 ppm [1] | mortality at 250 ppm [1]

CCN(C(=O)c1cc(Cl)cc(OS(=O)(=O)C(F)(F)F)c1)C(C)c1ncnn1-c1ncccn1 (centres unmarked) [Compound 50, 3-chloro-5-[[ethyl[1-[1-(2-pyrimidinyl)-1H-1,2,4-triazol-5-yl]ethyl]amino]carbonyl]phenyl 1,1,1-trifluoromethanesulfonate]
≥ 80%: mortality at 250 ppm [2] | mortality at 250 ppm [3] | mortality at 50 ppm [1, 4] | mortality at 250 ppm [1, 5]

CC(NC(=O)c1cc(Cl)cc(OS(=O)(=O)CC(F)(F)F)c1)c1ncnn1-c1ncccn1 (centres unmarked) [Compound 52]
≥ 80%: mortality at 250 ppm [1, 5]

CC(c1ncnn1-c1ncccn1)N(C)C(=O)c1cc(Cl)cc(OS(=O)(=O)C(F)(F)F)c1 (centres unmarked) [Compound 72]
≥ 80%: mortality at 50 ppm [2] | mortality at 250 ppm [2] | mortality at 250 ppm [3] | mortality at 2 ppm ([1]; assessed after 6 days) | mortality at 10 ppm ([1]; assessed after 6 days) | mortality at 50 ppm [1, 4] | mortality at 250 ppm [1, 5]

Reference: patent US20260083130A1, “NOVEL SULFONATE BENZAMIDE COMPOUNDS FOR CONTROLLING INVERTEBRATE PESTS” (FMC CORPORATION, priority 2022, published 2026)
